Measurements reported in US5659041A, “Hydrazino-type radionuclide chelators having an N3 S configuration” (Resolution Pharmaceuticals, Inc., priority 1994, dated 1997).
Numbered stars: 1 amine (or outer) side, 2 acyl side, 3 side chain; on linkers, the order of the positions; unused ones are H or OH. Square brackets hold non-standard residues; d marks the D form. Peptide text beside a SMILES is read from it. X2 = CN(N[*:1])c1ccc(C(=O)[*:2])cn1; X1 = O=C(CSCN[*:1])[*:2]

Legend:
[1] = Extent of complexation of 99mTc with chelators (radioactivity of eluted C-18 Sep-Pak fractions); assay type: physicochemical; details: for Chelator (EtOH-saline eluate), percent of total / Chelator (EtOH-saline eluate), radioactivity / TcO2, percent of total / TcO2, radioactivity / TcO4- (HCl eluate), percent of total / TcO4- (HCl eluate), radioactivity of eluted fraction: Example 2: SnCl2, pH 6, Example 4: sodium dithionite, pH 12-13, 75° C.
Method: The chelator N-(S-benzoylmercaptoacetyl)-glycyl-2-pyridylhydrazide (example 2, 1 mg) was dissolved in EtOH-water and hydrolyzed by heating with NaOH, after which the reaction mixture was neutralized with acetic acid to pH 6. 350 μg hydrolyzed chelator was reacted with 103 MBq TcO4^- and 10 μg SnCl2 at room temperature. […] To achieve adequate separation of the chelator, the solution was then loaded on a C-18 SepLPak column which was eluted with dilute HCI to remove Tc04-. Subsequent elution with 1:1 EtOH-saline removed the chelator while Tc02 remained on the column.
Another chelator was similarly labeled. Particularly, 300 μg of the hydrolyzed chelator N-(S-benzoylmercaptoacetyl)-glycyl-3-(6-chloropyridazyl)-hydrazide (example 4) was adjusted to pH 12-13 and reduced with 100 μg of sodium dithionite for 10 minutes at 75° C. The resulting mixture was then loaded on a C-18 Sep-Pak column and eluted with dilute HCI followed by EtOH-saline. The extent of complexation of ^99m Tc with chelators was measured by radioactivity of the eluted fractions; results are shown in the table below.

[2] = In vivo distribution of 99mTc labeled chelators within rats; design: species or system male Wistar rats; details: rat, i.v. tail vein
Method: Distribution within rats of selected chelators and a reference chelator was determined using established protocols. Briefly, male Wistar rats (Charles River, 200 g) were anesthetized with somnitol (40 to 50 mg/kg) and 200 μL of the labeled chelator (ie. 200 μCi) was injected intravenously via the tail vein. Serial whole-body scintigrams were acquired for first 10 minutes. After further images were obtained at 60 and 120 minutes, the rat was killed with anesthesia and samples of organs (blood, heart, lung, liver, spleen, kidney, muscle, GI tract) were weighed and counted in either a well-type gamma counter or in a gamma dose calibrator. Dose calculations were made based On the assumption that rats weighed 200 g and that the blood volume constituted 8% body weight. All results were corrected for the residual dose in the tail.

[3] = Labeling of chelator-conjugate with 99mTc (HPLC radioactivity of fractions); assay type: physicochemical; details: pertechnetate, stannous gluconate, boiling water bath 12 minutes
Method: The chelator-conjugate of example 11 (200 μL, 1 mg/mL saline) was injected into a 3 mL vacutainer with 100 μL pertechnetate (10 mCi) and 100 μL stannous gluconate (50 μg stannous chloride and 1 mg sodium gluconate). The tube was placed in a boiling water bath for 12 minutes and then filtered through a Watman PVDF syringe filter to collect the labeled conjugate solution which was further diluted with saline to prepare an injectable solution (2 Mbq/mL). The chelator-conjugate was isolated by HPLC (Beckman) from a (20 μL) sample (before dilution) to determine the labeling yield by measuring radioactivity of the fractions. 70.8%, 5.1% and 15.0% of the label was found in each of three fractions eluted for a 90.9% total labeling yield.

[4] = tested on: "Tuftsin" receptors on leukocytes; assay: Binding of TKPPR peptide to Tuftsin receptors on leukocytes
[5] = 200 μCi, organs counted after 120 minutes images

## O=C(CSC(=O)c1ccccc1)NCC(=O)NNc1ccccn1 [Example 2, N-(S-benzoylmercaptoacetyl)-glycyl-2-pyridylhydrazide]
[1]
  Chelator (EtOH-saline eluate), percent of total: 68%
  Chelator (EtOH-saline eluate), radioactivity: 27.6 MBq
  TcO2, percent of total: 31%
  TcO2, radioactivity: 12.5 MBq
  TcO4- (HCl eluate), percent of total: 1%
  TcO4- (HCl eluate), radioactivity of eluted fraction: 0.15 MBq
[1]; SnCl2 at room temperature, pH 6, did not change after heating 10 minutes at 80° C.
  activity present as TcO2: Approximately half activity was present as TcO2
[2]; [5]
  dose in the liver and GI tract: about 60%
  dose remaining in the blood: about 6%

## COC(=O)CC[C@H](NC(=O)CSC(=O)c1ccccc1)C(=O)NNc1ccccn1 [Example 3, No(S-benzoylmercaptoacetyl)-L-glutamyl-(gamma-methyl ester)-2-pyridylhydrazide]
[2]; 200 μCi, compared with the other chelators
  accumulation in the kidney: greatest accumulation in the kidney

## O=C(CSC(=O)c1ccccc1)NCC(=O)NNc1ccc(Cl)nn1 [Example 4, N-(S-benzoylmercaptoacetyl)-glycyl-3-(6-chloropyridazyl)-hydrazide]
[1]
  Chelator (EtOH-saline eluate), percent of total: 78%
  Chelator (EtOH-saline eluate), radioactivity: 14.19 MBq
  TcO2, percent of total: 14%
  TcO2, radioactivity: 2.55 MBq
  TcO4- (HCl eluate), percent of total: 8%
  TcO4- (HCl eluate), radioactivity of eluted fraction: 1.38 MBq
[2]; 200 μCi
  clearance from the blood (and other tissues): fastest clearance from the blood and other tissues
  route of elimination: mainly eliminated through the liver and GI tract
[2]; [5]
  dose in the liver and GI tract: About 70%

## COC(=O)CC[C@H](NC(=O)CSC(=O)c1ccccc1)C(=O)NNc1ccc(Cl)nn1 [Example 5, N-(S-benzoylmercaptoacetyl)-L-glutamyl-(gamma-methylester)-3-(6-chloropyridazyl)-hydrazide]
[2]; [5]
  dose localized in the GI tract: 55%
  dose remaining in the blood: about 10%

## CC(=O)NCSCC(=O)N[C@@H](CO)C(=O)NN(C)c1ccc(C(=O)NCC(=O)N[C@H](C(=O)N[C@@H](CCCCN)C(=O)N2CCC[C@H]2C(=O)N2CCC[C@H]2C(=O)N[C@@H](CCCNC(=N)N)C(=O)O)[C@@H](C)O)cn1 [Example 11, S-Acm-Mercaptoacetyl-Ser-N-methylhydrazino nicotinic acid- Gly--Thr--Lys--Pro--Pro--Arg] (Ac-[X1]S[X2]GTKPPR-OH)
[3]
  total labeling yield: 90.9%

## O=C(CNC(=O)CSC(=O)c1ccccc1)NCc1ccccn1 [N-(S-benzoylmercaptoacetyl)-glycyl-2-pyridylmethylamide, reference compound]
[2]; reference chelator lacking hydrazide
  retention in the blood pool: extensively retained in the blood pool

## TKPPR
[4]
  binding to "Tuftsin" receptors on leukocytes: binds particularly well
